Results on 13 compounds are retold here after patent US10087465B2, “Trans-acting elements for intracellular delivery of nucleic acid sequences” (The United States of America, as Represented by the …, priority 2014, dated 2018).

Assay type in all cases: cell-based
Data set [1] relates to HeLa pLuc 705 cells. Nature of the data set: Endocytic pathway assays. The following applies: dTtaPS-mediated uptake of PNA oligomer 10, chlorpromazine 30 μM, nystatin 50 μM, EIPA 1 mM. Here is the method:
Endocytic pathway assays: HeLa pLuc 705 cells were seeded in a 96-well plate and grown in 10% FBS-DMEM as described above. The cell culture was then pre-incubated for 30 min at 37° C. in the presence of chlorpromazine, nystatin or 5-(N-ethyl-N-isopropyl)amiloride (EIPA), the final concentration of which was 30 μM, 50 μM or 1 mM, respectively. A 2× solution of PNA oligomer 10:dTtaPS complex was added to the cells to provide an oligomer and dTtaPS final concentration of 1.0 μM and 2.0 μM, respectively. The cells were then incubated for an additional 30 min at 37° C., whereupon luciferase activity was measured as described above in the Luciferase assay protocol. Luminescence measurements were normalized to the amounts of protein present in the test samples and reported as percent luminescence remaining relative to that of the experiment performed in the absence of endocytic pathway inhibitors.

Data set [2] deals with HEK 293, HeLa, HeLa pLuc705, MCF7 and SK—N—SH live cells. Nature of the data set: Flow cytometry (FACS) analysis of cellular uptake of fluorescently-labeled PNA or PMO oligomers in live cells. The following applies: for PS-dT8[3+] (dTtaPS)-mediated delivery of fluoresceinated PMO oligomers: PMO oligomer 1 μM, PS-dT8[3+] 2 μM, all cell lines, FIG. 17; for PS-dT8[3+] (dTtaPS)-mediated cellular internalization of fluoresceinated PNA oligomers: in the presence of PS-dT8[3+], oligomer 1 μM, all cell lines under study, FIG. 11. Here is the method:
(§1) Complex formation between PNA or PMO oligomers and dTtaPS or dAtaPS: Appropriate amounts of PNA or PMO oligomers were diluted in serum-free OptiMEM™ (20 μl). dTtaPS or dAtaPS was added to the oligomer solution to achieve a final concentration that is twice that of the oligomer. After 30 min incubation at 37° C., the PNA or PMO oligomer: dTtaPS or dAtaPS complexes were stored at 4° C. for 15 minutes or until used. Stock solutions (2×) of the complexes were made by adding OptiMEM™ to appropriate volumes.
Flow cytometry analysis of cellular uptake in live cells: The internalization of fluorescently-labeled PNA or PMO sequences (Table 1) in HEK 293, HeLa, MCF7 and SK—N—SH cells was assessed by flow cytometry. Cells were seeded in a 96-well plate (10^4 cells/well) and allowed to grow at 37° C. for 24 h in 10% FBS-MEM. The culture medium of each well was then replaced with fresh medium (100 μl) containing any of the fluorescently-labeled PNA or PMO sequences, the final concentration of which was 1 μM. After an incubation of 18 h at 37° C., the medium was removed from each well by suction and 0.25% Trypsin (50 μl) was added. Upon complete cell detachment, a solution (100 μl) of ice-cold 2% FBS in phosphate-buffered saline (PBS, pH 7.4) was added to each well. The cells were collected into tubes, to which was added 0.4% Trypan blue (50 μl) and 200 µM monensin (20 μl), and analyzed by fluorescence-activated cell sorting (FACS) using a BD FACScan™ flow cytometer. A total of 5000 events were counted and the results were reported as a percentage of the cells that have internalized the fluorescently-labeled oligomers.

Data set [3] deals with HeLa pLuc705 cells. Nature of the data set: Luciferase splice correction assay. The following applies: for luciferase activity (splice correction) upon PS-dT8[3+] (dTtaPS)-assisted delivery of PNA oligomers: FIG. 12, 13, 15; for luciferase activity / internalization upon PS-dA8[3+] (dAtaPS)-mediated delivery of PNA oligomers: PS-dA8[3+] 2.0 μM, compared with PS-dT8[3+]:10 complex, FIG. 16. Here is the method: The efficiency of PS-dT8[3+] in the cellular uptake of polyA-tailed PNA oligomers was assessed through the luciferase splice correction assay in which the mutated intron 2 of the human β-globin gene has been inserted within the coding sequence of a luciferase reporter gene (pLuc705). The activation of a cryptic splice site in this intron leads to a defective luciferase enzyme. In the presence of a PNA oligomer complementary to the aberrant splice site, correct splicing is restored and results in an active luciferase. A concentration-dependence of splice correction activity by PS-dT8[3+]-mediated internalization of the PNA oligomer 10 in HeLa pLuc705 cells is shown in FIG. 12.
as §1
Luciferase assay protocol: HeLa pLuc 705 cells were seeded in a 96-well plate (2×10^4 cells/well) and allowed to grow at 37° C. for 18 h in 10% FBS-DMEM. The culture medium of each well was then replaced with either fresh serum-free or 20% serum-containing OptiMEM™ (50 μl) for experiments intended to be performed in serum-free or in 10% serum-containing media. A 2× solution of PNA or PMO oligomer:dTtaPS or dAtaPS complexes (50 μl) was added to the cells in order to achieve pre-determined complex concentrations, as indicated in the Figures. After a 4-hour incubation at 37° C., 20% FBS in OptiMEM™ (100 μl was added to serum-free experiments and cells were incubated for an additional 18 h at 37° C. The media was then removed by suction and the cells were mixed with a cell lysis reagent (50 μl) and agitated at ambient temperature for 10 minutes. The cell lysate (30 μl) was placed in a white 96-well plate and Bright-Glo™ reagent (20 μl) was added. Luciferase activity was measured using a microplate reader. For each well, luminescence was integrated over a period of 1 sec and recorded as relative light units (RLU). Luminescence measurements were normalized to the amount of protein present in the test sample.
Appropriate amounts of PNA/PMO oligomers were diluted in OptiMEM™ (20 μL) to achieve the concentration of 1 μM or as indicated in the Figures. PS-dT8[3+] or PS-dAs[3+] was added to the above oligomer solutions. After a 30 min incubation at 37° C., the PNA/PMO oligomer:PS-dT8[3+] or PS-dA8[3+] complexes were removed and kept at 4° C. for 15 minutes or until used. Stock solutions of the complexes were made by adding OptiMEM™ to appropriate volumes.
Luciferase Assay: Prior to performing experiments, HeLa pLuc 705 cells were seeded in a 96-well plate (2×10^4 cells/well) and allowed to grow at 37° C. for 18 h in 10% FBS DMEM. The culture medium of each well was then replaced with either fresh 50 μL serum free or 20% serum-containing OptiMEM™ for experiments intended to be performed in serum free or in 10% serum-containing media. A 2× solution of the PNA/PMO oligomer:PS-dT8[3+] or PS-dAs[3+] complexes (50 μL) was added to the cells in order to achieve a pre-determined concentration as indicated in the figures. After a 4-hour incubation at 37° C., 20% FBS in OptiMEM (100 μL) was added to serum free experiments and cells were incubated for an additional 18 h at 37° C. The media was then removed by suction and the cells were mixed with a cell lysis reagent (50 μL) and agitated at ambient temperature over a period of 10 minutes. The cell lysate (30 μL) was placed in white 96-well plate and Bright-Glow™ reagent (20 μL) was added. Luciferase activity was measured using a microplate reader. […]

“Also recorded” adds a separate entry of the source. {NH2} = C-terminal amide of the PNA; {F1} = fluorescein label

In the case of `CCN(c1nc(N)c(C(=O)N=C(N)N)nc1Cl)C(C)C` [EIPA, 5-(N-ethyl-N-isopropyl)amiloride], in data set [1], the “inhibition of luciferase production by endocytic pathway inhibitor” value is about 95%. The same measure, in the same setting: with `C[C@@H]1[C@H](O)[C@@H](C)/C=C/C=C/CC/C=C/C=C/C=C/C=C/C(O[C@H]2O[C@H](C)[C@@H](O)[C@H](N)[C@@H]2O)CC2O[C@](O)(CC(O)C(O)CCC(O)CC(O)CC(O)CC(=O)O[C@H]1C)CC(O)C2C(=O)O` (stereo partly shown) [Nystatin, nystatin] the entry was “did not inhibit”.

In the case of `CN(C)CCCN1c2ccccc2Sc2ccc(Cl)cc21` [chlorpromazine], the inhibition at 30 µM in data set [1] (Homo sapiens, HeLa, read-out: inhibition of luciferase production by endocytic pathway inhibitor) was about 40%. Regarding “PMO oligomer 19: commercial PMO, GTGGCCGTTTACGTCGCC-AAAAAA-F1, SEQ ID NO. 13 (GTGGCCGTTTACGTCGCCAAAAAA; PMO, F1 label, chemistry not fully specified)”, the “PS-dT8[3+] (dTtaPS)-mediated delivery of fluoresceinated PMO oligomers” value in data set [2] (listed as 19) is “confirmed the dTtaPS-assisted delivery”.

As for “PMO oligomer 20: commercial PMO, CCTCTTACCTCAGTTACA-F1, SEQ ID NO. 14 (all phosphorodiamidate morpholino (PMO), 3' {F1})”, the “PS-dT8[3+] (dTtaPS)-mediated delivery of fluoresceinated PMO oligomers” value in data set [2] is on record as “reduced to that of the medium”. For the compound “PMO oligomer 24: commercial PMO, CCTCTTACCTCAGTTACA-AATAAA, SEQ ID NO. 18 (CCTCTTACCTCAGTTACAAATAAA; all phosphorodiamidate morpholino (PMO))”, the “luciferase activity upon PS-dT8[3+] (dTtaPS)-assisted internalization of PMO oligomers” value in data set [3] (PMO oligomer 1 μM, PS-dT8[3+] 2 μM, relative to PMO oligomer 21, FIG. 18, listed as 24) is “did not significantly decrease; also recorded: did not significantly affect”. In the case of “PNA oligomer 8: commercial PNA, F1-GTGGCCGTTTACGTCGCC-AAAAAA-NH2, SEQ ID NO. 2 (GTGGCCGTTTACGTCGCCAAAAAA; PNA, F1 label, C-amide, chemistry not fully specified)”, the “PS-dT8[3+] (dTtaPS)-mediated cellular internalization of fluoresceinated PNA oligomers” value in data set [2] is on record as “efficiently internalized”. The same measure, in the same setting: for “PNA oligomer 9: commercial PNA, F1-CCTCTTACCTCAGTTACA-NH2, SEQ ID NO. 3 (all peptide nucleic acid (PNA), 5' {F1}; PNA with C-terminal amide, further chemistry not fully specified)” the value was “not significantly internalized”. Consider “PNA oligomer 11: commercial PNA, negative control, H-GTGGCCGTTTACGTCGCC-AAAAAA-NH2, SEQ ID NO. 5 (GTGGCCGTTTACGTCGCCAAAAAA; all peptide nucleic acid (PNA); PNA with N-terminal H and C-terminal amide, further chemistry not fully specified)”, for which the “luciferase activity (splice correction) upon PS-dT8[3+] (dTtaPS)-assisted delivery of PNA oligomers” value in data set [3] (PS-dT8[3+] 2 μM, listed as 11) was “failed, as expected for a negative control, to restore luciferase activity”.

Take “PNA oligomer 12: commercial PNA, H-CCTCTTACCTCAGTTACA-NH2, SEQ ID NO. 6 (all peptide nucleic acid (PNA); PNA with N-terminal H and C-terminal amide, further chemistry not fully specified)”: the “luciferase activity (splice correction) upon PS-dT8[3+] (dTtaPS)-assisted delivery of PNA oligomers” value in data set [3] (PS-dT8[3+] 2 μM) is reported as “did not restore luciferase activity”.

Regarding “PNA oligomer 15: commercial PNA, H-CCTCTTACCTCAGTTACA-TTTTTT-NH2, SEQ ID NO. 9 (CCTCTTACCTCAGTTACATTTTTT; all peptide nucleic acid (PNA); PNA with N-terminal H and C-terminal amide, further chemistry not fully specified)”, the “luciferase activity / internalization upon PS-dA8[3+] (dAtaPS)-mediated delivery of PNA oligomers” value in data set [3] (listed as 15) is listed as “about half the level of luciferase activity”. Also, the “luciferase activity (splice correction) upon PS-dT8[3+] (dTtaPS)-assisted delivery of PNA oligomers” value in data set [3] (PS-dT8[3+] 2 μM, listed as 15) is “did not result in significant production of luciferase activity; also recorded: did not lead to the production of luciferase activity”.

Consider “PNA oligomer 16: commercial PNA, H-CCTCTTACCTCAGTTACA-CCCCCC-NH2, SEQ ID NO. 10 (CCTCTTACCTCAGTTACACCCCCC; all peptide nucleic acid (PNA), 3' {NH2}; further chemistry not fully specified)”, for which, in data set [3] (listed as 16), the “luciferase activity / internalization upon PS-dA8[3+] (dAtaPS)-mediated delivery of PNA oligomers” value is “failed to recognize and internalize”. The “luciferase activity (splice correction) upon PS-dT8[3+] (dTtaPS)-assisted delivery of PNA oligomers” value in data set [3] (PS-dT8[3+] 2 μM, listed as 16) is listed as “did not result in significant production of luciferase activity; also recorded: did not lead to the production of luciferase activity”. For “PNA oligomer 17: commercial PNA, H-AAAAAA-CCTCTTACCTCAGTTACA-NH2, SEQ ID NO. 11 (AAAAAACCTCTTACCTCAGTTACA; all peptide nucleic acid (PNA); PNA with N-terminal H and C-terminal amide, further chemistry not fully specified)”, the “luciferase activity / internalization upon PS-dA8[3+] (dAtaPS)-mediated delivery of PNA oligomers” value in data set [3] (listed as 17) is “failed to recognize and internalize”. Further, the “luciferase activity (splice correction) upon PS-dT8[3+] (dTtaPS)-assisted delivery of PNA oligomers” value in data set [3] (PS-dT8[3+] 2 μM) is reported as “did not significantly affect”.
